Measurements reported in patent US20240197761A1, “FUCOSYLATION AND IMMUNE MODULATION IN CANCER” (H. LEE MOFFITT CANCER CENTER AND RESEARCH INSTITUTE, INC., priority 2021, published 2024).

Tested on: SM1 tumors
Assay: Immunodepletion mouse model (CD4+ or CD8+ T cell depletion), SM1
Assay type: in vivo, C57BL6 mice
Details: CD4+ but not CD8+T cell depletion
Description: Total TILs were gated first to single cells (based on forward scatter height vs width, followed by side scatter height vs. width). Live cells were gated from the Zombie negative population from the population above. TILs were gated based on splenocyte size from a control spleen. Individual immune subpopulations were sub-gated from the total TIL population using the following staining criteria: CD3+ for CD3+ T cells; CD3+/CD4+/CD8− for CD4+T cells; CD3+/CD4−/CD8+ for CD8+ T cells, CD11c+/CD11b+ for DCs; either NK1.1 (for C57/BL6 mice) or DX5 (for C3H/HeJ) for NK cells; CD11b+/GR1+ for MDSC-like cells; and F4/80+ for macrophages. Single-cell suspensions from tumor and spleen tissue were stained with Live/Dead Zombie NIR (Biolegend, (San Diego, CA)) at 1:1,000 in PBS for 20 min. Cell suspensions were spun down and stained with the following with antibodies at 0.5 μg/ml per antibody: APC anti-mouse CD3, Pacific Blue anti-mouse CD4, BV785 anti-mouse CD8, PerCP anti-mouse CD25, FITC anti-mouse F4/80, PeCy7 anti-mouse CD11c, PE anti-mouse NK1.1 or PE anti-mouse DX5, and PerCP-Cy5.5 anti-mouse CD11 b. After staining, the cells were washed and fixed (2% formaldehyde), followed by another wash and flow cytometric analysis. The compensation controls were prepared using 0.5 μg/mL of each antibody with UltraComp eBeads, (ThermoFisher Scientific (Waltham, MA)). […]

C[C@H](O)[C@@H](O)[C@@H](O)[C@H](O)C=O [L-fucose]
L-fuc-triggered tumor suppression and increases in total itICs: abrogated
